Experimental data as given in patent US10954269B2, “Anti-inflammatory tripeptides” (Dr. August Wolff Gmbh & Co. KG Arzneimittel, priority 2013, dated 2021).

Tests used:
primary human T-cells = assay: Cytokine secretion on protein level in activated primary human T-cells (13-plex FACS / Luminex, supernatant); assay type: cell-based; details: substance 10^−9M
Procedure, shortened: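 Cytokine protein in supernatant is read by multiplex FACS or Luminex. Tripeptide-treated HaCaT cells or blood-derived human T-cells are stimulated beforehand with PMA/Ionomycin or IFN-γ. The most relevant analytes are IL-1, IL-2, IL-6, IL-12p70, IL-17, IFN-γ and TNF-α, sampled 48 h and 72 h after stimulation.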

[1] = test system: human keratinocyte cell line (HaCaT); assay: Cytokine secretion on protein level in activated human keratinocyte cell line HaCaT (13-plex FACS / Luminex, supernatant); assay type: cell-based; details: substance 10^−9M
Procedure, shortened: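 First, T-cells are isolated from healthy donors' blood. Next, they and HaCaT keratinocytes are activated for 48 h with PMA/Ionomycin or IFN-γ in the presence of tripeptides. Finally, secreted cytokines are quantified in supernatants by 13-plex FACS at 48 and 72 h.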

[2] = primary human T-cells stimulated with PBS
[3] = primary human T-cells stimulated with PMA/Ionomycin
[4] = HaCaT stimulated with PMA/Ionomycin

Q: Which IL-10 cytokine concentration (primary human T-cells; [2]) does the source give for `COc1c(C)c2c(c(O)c1C/C=C(\C)CCC(=O)OCCN1CCOCC1)C(=O)OC2` [MMF, mycophenolate mofetil, reference compound] here?
A: The IL-10 cytokine concentration was 79.26 pg/mL.

Q: What about the IL-12 cytokine concentration (primary human T-cells; [2]) of the same compound?
A: The IL-12 cytokine concentration was 0 pg/mL.

Q: What about the IL-13 cytokine concentration (primary human T-cells; [2]) of the same compound?
A: The IL-13 cytokine concentration was 79.09 pg/mL.

Q: And the IL-17 cytokine concentration (primary human T-cells; [2])?
A: The IL-17 cytokine concentration was 71.42 pg/mL.

Q: And the IL-22 cytokine concentration (primary human T-cells; [2])?
A: Its IL-22 cytokine concentration is 0 pg/mL.

Q: And the TNF-a cytokine concentration (primary human T-cells; [2])?
A: The TNF-a cytokine concentration was 53.91 pg/mL.

Q: What about the IFN-γ cytokine concentration (primary human T-cells; [3]) of the same compound?
A: Its IFN-γ cytokine concentration is 9491.25 pg/mL.

Q: And the IL-1 cytokine concentration (primary human T-cells; [3])?
A: Its IL-1 cytokine concentration is 505.05 pg/mL.

Q: And the IL-2 cytokine concentration (primary human T-cells; [3])?
A: The IL-2 cytokine concentration was 1498.52 pg/mL.

Q: And the IL-4 cytokine concentration (primary human T-cells; [3])?
A: Its IL-4 cytokine concentration is 29.49 pg/mL.

Q: What about the IL-5 cytokine concentration (primary human T-cells; [3]) of the same compound?
A: The IL-5 cytokine concentration was 309.88 pg/mL.

Q: And the IL-6 cytokine concentration (primary human T-cells; [3])?
A: Its IL-6 cytokine concentration is 1198.6 pg/mL.

Q: What about the IL-9 cytokine concentration (primary human T-cells; [3]) of the same compound?
A: The IL-9 cytokine concentration was 339.89 pg/mL.

Q: What about the IL-10 cytokine concentration (primary human T-cells; [3]) of the same compound?
A: The IL-10 cytokine concentration was 814.79 pg/mL.

Q: And the IL-12 cytokine concentration (primary human T-cells; [3])?
A: Its IL-12 cytokine concentration is 0 pg/mL.

Q: What about the IL-13 cytokine concentration (primary human T-cells; [3]) of the same compound?
A: The IL-13 cytokine concentration was 1072.09 pg/mL.

Q: What about the IL-17 cytokine concentration (primary human T-cells; [3]) of the same compound?
A: Its IL-17 cytokine concentration is 1097.19 pg/mL.

Q: What about the IL-22 cytokine concentration (primary human T-cells; [3]) of the same compound?
A: Its IL-22 cytokine concentration is 0 pg/mL.

Q: And the TNF-a cytokine concentration (primary human T-cells; [3])?
A: The TNF-a cytokine concentration was 3987.21 pg/mL.

Q: What about the IL-1 cytokine concentration ([1]; HaCaT stimulated with IFN-γ) of the same compound?
A: The IL-1 cytokine concentration was 0 pg/mL.

Q: What about the IL-2 cytokine concentration ([1]; HaCaT stimulated with IFN-γ) of the same compound?
A: The IL-2 cytokine concentration was 0 pg/mL.

Q: What about the IL-4 cytokine concentration ([1]; HaCaT stimulated with IFN-γ) of the same compound?
A: The IL-4 cytokine concentration was 33.01 pg/mL.

Q: And the IL-5 cytokine concentration ([1]; HaCaT stimulated with IFN-γ)?
A: Its IL-5 cytokine concentration is 0 pg/mL.

Q: What about the IL-6 cytokine concentration ([1]; HaCaT stimulated with IFN-γ) of the same compound?
A: The IL-6 cytokine concentration was 239.05 pg/mL.

Q: What about the IL-9 cytokine concentration ([1]; HaCaT stimulated with IFN-γ) of the same compound?
A: The IL-9 cytokine concentration was 0 pg/mL.

Q: And the IL-10 cytokine concentration ([1]; HaCaT stimulated with IFN-γ)?
A: The IL-10 cytokine concentration was 0 pg/mL.

Q: And the IL-12 cytokine concentration ([1]; HaCaT stimulated with IFN-γ)?
A: Its IL-12 cytokine concentration is 0 pg/mL.

Q: What about the IL-13 cytokine concentration ([1]; HaCaT stimulated with IFN-γ) of the same compound?
A: The IL-13 cytokine concentration was 0 pg/mL.

Q: What about the IL-17 cytokine concentration ([1]; HaCaT stimulated with IFN-γ) of the same compound?
A: The IL-17 cytokine concentration was 58.48 pg/mL.

Q: And the IL-22 cytokine concentration ([1]; HaCaT stimulated with IFN-γ)?
A: Its IL-22 cytokine concentration is 0 pg/mL.

Q: And the TNF-α cytokine concentration ([1]; HaCaT stimulated with IFN-γ)?
A: The TNF-α cytokine concentration was 0 pg/mL.

Q: What about the IFN-γ cytokine concentration ([1]; HaCaT stimulated with PBS) of the same compound?
A: The IFN-γ cytokine concentration was 0 pg/mL.

Q: And the IL-1 cytokine concentration ([1]; HaCaT stimulated with PBS)?
A: Its IL-1 cytokine concentration is 0 pg/mL.

Q: And the IL-2 cytokine concentration ([1]; HaCaT stimulated with PBS)?
A: Its IL-2 cytokine concentration is 0 pg/mL.

Q: What about the IL-4 cytokine concentration ([1]; HaCaT stimulated with PBS) of the same compound?
A: The IL-4 cytokine concentration was 120.89 pg/mL.

Q: What about the IL-5 cytokine concentration ([1]; HaCaT stimulated with PBS) of the same compound?
A: The IL-5 cytokine concentration was 0 pg/mL.

Q: And the IL-6 cytokine concentration ([1]; HaCaT stimulated with PBS)?
A: The IL-6 cytokine concentration was 39.58 pg/mL.

Q: And the IL-9 cytokine concentration ([1]; HaCaT stimulated with PBS)?
A: The IL-9 cytokine concentration was 0 pg/mL.

Q: What about the IL-10 cytokine concentration ([1]; HaCaT stimulated with PBS) of the same compound?
A: Its IL-10 cytokine concentration is 33.26 pg/mL.

Q: What about the IL-12 cytokine concentration ([1]; HaCaT stimulated with PBS) of the same compound?
A: The IL-12 cytokine concentration was 0 pg/mL.

Q: What about the IL-13 cytokine concentration ([1]; HaCaT stimulated with PBS) of the same compound?
A: Its IL-13 cytokine concentration is 0 pg/mL.

Q: What about the IL-17 cytokine concentration ([1]; HaCaT stimulated with PBS) of the same compound?
A: Its IL-17 cytokine concentration is 0 pg/mL.

Q: And the IL-22 cytokine concentration ([1]; HaCaT stimulated with PBS)?
A: Its IL-22 cytokine concentration is 0 pg/mL.

Q: What about the TNF-α cytokine concentration ([1]; HaCaT stimulated with PBS) of the same compound?
A: The TNF-α cytokine concentration was 0 pg/mL.

Q: And the IFN-γ cytokine concentration [1, 4]?
A: Its IFN-γ cytokine concentration is 0 pg/mL.

Q: What about the IL-1 cytokine concentration [1, 4] of the same compound?
A: The IL-1 cytokine concentration was 0 pg/mL.

Q: And the IL-2 cytokine concentration [1, 4]?
A: Its IL-2 cytokine concentration is 0 pg/mL.

Q: And the IL-4 cytokine concentration [1, 4]?
A: The IL-4 cytokine concentration was 98.71 pg/mL.

Q: What about the IL-5 cytokine concentration [1, 4] of the same compound?
A: Its IL-5 cytokine concentration is 0 pg/mL.

Q: And the IL-6 cytokine concentration [1, 4]?
A: The IL-6 cytokine concentration was 116.51 pg/mL.

Q: What about the IL-9 cytokine concentration [1, 4] of the same compound?
A: The IL-9 cytokine concentration was 0 pg/mL.

Q: And the IL-10 cytokine concentration [1, 4]?
A: The IL-10 cytokine concentration was 66.23 pg/mL.

Q: What about the IL-12 cytokine concentration [1, 4] of the same compound?
A: The IL-12 cytokine concentration was 0 pg/mL.

Q: And the IL-13 cytokine concentration [1, 4]?
A: The IL-13 cytokine concentration was 0 pg/mL.

Q: What about the IL-17 cytokine concentration [1, 4] of the same compound?
A: Its IL-17 cytokine concentration is 0 pg/mL.

Q: What about the IL-22 cytokine concentration [1, 4] of the same compound?
A: Its IL-22 cytokine concentration is 0 pg/mL.

Q: And the TNF-α cytokine concentration [1, 4]?
A: Its TNF-α cytokine concentration is 0 pg/mL.
